Several values for one entry are separate records, joined by “and”; a condition that tells them apart may be missing. Identical values can stand only once.
How the values were obtained:
[1] = system: HeLa cells; details: 100 μM
[2] = MLM incubation
[3] = pH 7.4
[4] = mice, 20 mg/kg, IP, whole period of the experiment
[5] = system: Plk1 localization to centrosomes and kinetochores; assay: Plk1 localization and spindle morphology by immunostaining in HeLa cells; type: cell-based; details: 100 μM, 12 h
[6] = in vitro; details: PAMPA, pH 7.4
[7] = system: 45 receptors and channels; details: 10 μM; radioligand binding and functional assays
[8] = Aqueous solubility

SMILES | ability to induce mitotic arrest and an antiproliferation effect [1] | PAMPA [3] | other results
CCCn1c(=O)c2cccc(F)c2n2c(=S)[nH]nc12 [Compound 139, 9-Fluoro-4-propyl-1-thioxo-2,4-dihydro-[1,2,4]triazolo[4,3-a]-quinazolin-5(1H)-one] | lacked a detectable level of cellular response | – | –
CCCCn1c(=O)c2ccccc2n2c(S)nnc12 [Compound 23, 4-Butyl-1-thioxo-2,4-dihydro-[1,2,4]triazolo[4,3-a]quinazolin-5(1H)-one] | – | 77.5 ×10⁻⁶ cm/s | major metabolite (LC–MS/MS) [2]: glucuronidation is the major metabolite
CCCn1c(=O)c2ccccc2n2c(SC)nnc12 [Compound 143, 1-(Methylthio)-4-propyl-[1,2,4]triazolo[4,3-a]quinazolin-5(4H)-one] | effectively induced rounded cells with apoptotic or aberrant chromosome morphologies | – | signs of toxicity [4]: no signs of toxicity; spindle bipolarity [5]: significantly compromised
CN(C)CCn1c(=O)c2cc(F)ccc2n2c(=S)[nH]nc12 [Compound 70, 4-(2-(Dimethylamino)ethyl)-7-fluoro-1-thioxo-2,4-dihydro-[1,2,4]triazolo[4,3-a]quinazolin-5(1H)-one] | – | – | Papp [6]: 177 ×10⁻⁶ cm/s
CCCn1c(=O)c2ccccc2n2c(S)nnc12 [Compound 21, 4-Propyl-1-thioxo-2,4-dihydro-[1,2,4]triazolo[4,3-a]quinazolin-5(1H)-one] | lacked a detectable level of cellular response | 37.0 ×10⁻⁶ cm/s and 37 ×10⁻⁶ cm/s | potential off-target interactions [7]: not detected
CCCn1c(=O)c2cccc(F)c2n2c(SC)nnc12 [Compound 145, 9-Fluoro-1-(methylthio)-4-propyl-[1,2,4]triazolo[4,3-a]-quinazolin-5(4H)-one] | effectively induced rounded cells with apoptotic or aberrant chromosome morphologies | – | –
CCCn1c(=O)c2ccccc2n2c(=S)n(CN(C)C3CC3)nc12 [Compound 35, 2-((Cyclopropyl(methyl)amino)methyl)-4-propyl-1-thioxo-2,4-di-hydro-[1,2,4]triazolo[4,3-a]quinazolin-5(1H)-one] | – | – | Solub. (μg/ml) [8]: Insol.
COc1cccc(CC(=O)NCCCn2c(=O)c3cc(F)ccc3n3c(=S)[nH]nc23)c1 [Compound 129, N-(3-(7-Fluoro-5-oxo-1-thioxo-1,2-dihydro-[1,2,4]triazolo[4,3-a]-quinazolin-4(5H)-yl)propyl)-2-(3-methoxyphenyl)acetamide] | – | – | Papp [6]: 311 ×10⁻⁶ cm/s
CCCn1c(=O)c2cc(F)ccc2n2c(=S)[nH]nc12 [Compound 64, 7-Fluoro-4-propyl-1-thioxo-2,4-dihydro-[1,2,4]triazolo[4,3-a]-quinazolin-5(1H)-one] | lacked a detectable level of cellular response | 195 ×10⁻⁶ cm/s | –
O=c1c2cc(F)ccc2n2c(=S)[nH]nc2n1CC1CC1 [Compound 79, 4-(Cyclopropylmethyl)-7-fluoro-1-thioxo-2,4-dihydro-[1,2,4]-triazolo[4,3-a]quinazolin-5(1H)-one] | – | 46.0 ×10⁻⁶ cm/s | –
Cc1ccc(CC(=O)NCCCn2c(=O)c3cc(F)ccc3n3c(=S)[nH]nc23)cc1 [Compound 126, N-(3-(7-Fluoro-5-oxo-1-thioxo-1,2-dihydro-[1,2,4]triazolo[4,3-a]-quinazolin-4(5H)-yl)propyl)-2-(p-tolyl)acetamide] | – | 621 ×10⁻⁶ cm/s | –
N#Cc1ccccc1CC(=O)NCCCn1c(=O)c2cc(F)ccc2n2c(=S)[nH]nc12 [Compound 133, 2-(2-Cyanophenyl)-N-(3-(7-fluoro-5-oxo-1-thioxo-1,2-dihydro-[1,2,4]triazolo[4,3-a]quinazolin-4(5H)-yl)propyl)acetamide] | – | 156 ×10⁻⁶ cm/s | –
O=C(Cc1cccc(F)c1)NCCCn1c(=O)c2cc(F)ccc2n2c(=S)[nH]nc12 [Compound 122, N-(3-(7-Fluoro-5-oxo-1-thioxo-1,2-dihydro-[1,2,4]triazolo[4,3-a]-quinazolin-4(5H)-yl)propyl)-2-(3-fluorophenyl)acetamide] | – | 364 ×10⁻⁶ cm/s | –
O=c1c2cc(F)ccc2n2c(=S)[nH]nc2n1CCc1cccnc1 [Compound 84, 7-Fluoro-4-(2-(pyridin-3-yl)ethyl)-1-thioxo-2,4-dihydro-[1,2,4]-triazolo[4,3-a]quinazolin-5(1H)-one] | – | <1 ×10⁻⁶ cm/s | –
O=c1c2cc(F)ccc2n2c(=S)[nH]nc2n1CCN1CCC(F)(F)CC1 [Compound 89, 4-(2-(4,4-Difluoropiperidin-1-yl)ethyl)-7-fluoro-1-thioxo-2,4-di-hydro-[1,2,4]triazolo[4,3-a]quinazolin-5(1H)-one] | – | 234 ×10⁻⁶ cm/s | –
O=C(Cc1ccc(Br)cc1)NCCCn1c(=O)c2cc(F)ccc2n2c(=S)[nH]nc12 [Compound 125, 2-(4-Bromophenyl)-N-(3-(7-fluoro-5-oxo-1-thioxo-1,2-dihydro-[1,2,4]triazolo[4,3-a]quinazolin-4(5H)-yl)propyl)acetamide] | – | 767 ×10⁻⁶ cm/s | –
CC(C)(C)OC(=O)NC1CCC(C(=O)NCCCn2c(=O)c3cc(F)ccc3n3c(=S)[nH]nc23)CC1 (centres unmarked) [Compound 110, tert-Butyl (4-((3-(7-fluoro-5-oxo-1-thioxo-1,2-dihydro-[1,2,4]-triazolo[4,3-a]quinazolin-4(5H)-yl)propyl)carbamoyl)cyclohexyl)-carbamate] | – | 330 ×10⁻⁶ cm/s | –
O=C(CN1CCOCC1)NCCCn1c(=O)c2cc(F)ccc2n2c(=S)[nH]nc12 [Compound 118, N-(3-(7-Fluoro-5-oxo-1-thioxo-1,2-dihydro-[1,2,4]triazolo[4,3-a]-quinazolin-4(5H)-yl)propyl)-2-morpholinoacetamide] | – | <1 ×10⁻⁶ cm/s | –
O=C(NCCCn1c(=O)c2cc(F)ccc2n2c(=S)[nH]nc12)C1CCCC1 [Compound 108, N-(3-(7-Fluoro-5-oxo-1-thioxo-1,2-dihydro-[1,2,4]triazolo[4,3-a]-quinazolin-4(5H)-yl)propyl)cyclopentanecarboxamide] | – | 155 ×10⁻⁶ cm/s | –
CCCn1c(=O)c2cc(F)ccc2n2c(SC)nnc12 [Compound 144, 7-Fluoro-1-(methylthio)-4-propyl-[1,2,4]triazolo[4,3-a]-quinazolin-5(4H)-one] | induced mitotic arrest but at a somewhat reduced level | – | –
